# From article PMC9558053, “Development of a novel high-throughput screen for the identification of new inhibitors of protein S-acylation” (The Journal of Biological Chemistry, 2022)
# Biological target: T1, human zDHHC2 (Homo sapiens, UniProt Q9UIJ5)
# T1 construct: expressed in transfected cells; host or cells: HEK293T
# T1 sequence (Q9UIJ5 1-367): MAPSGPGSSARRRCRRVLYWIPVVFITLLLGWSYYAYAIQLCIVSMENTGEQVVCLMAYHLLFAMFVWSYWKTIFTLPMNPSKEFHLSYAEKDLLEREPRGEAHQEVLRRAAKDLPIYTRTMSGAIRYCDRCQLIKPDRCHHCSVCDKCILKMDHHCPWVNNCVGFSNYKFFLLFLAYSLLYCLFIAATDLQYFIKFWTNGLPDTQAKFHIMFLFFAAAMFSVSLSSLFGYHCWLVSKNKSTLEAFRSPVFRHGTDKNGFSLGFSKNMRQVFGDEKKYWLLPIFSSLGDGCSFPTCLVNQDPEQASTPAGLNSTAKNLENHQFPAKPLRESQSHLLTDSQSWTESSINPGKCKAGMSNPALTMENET
# Assay: GFP-SNAP25b S-acylation in HEK293T cells co-expressing zDHHC2, copper-catalyzed click chemistry, Western blot
# Assay type: cell-based
# Details: for inhibition at 25 µM: HEK-293T, compound 25 μM, 4 h preincubation + 4 h labeling, read-out: SNAP25 S-acylation inhibition (%), zDHHC2; for inhibition at 25 µM / zDHHC2-mediated substrate (SNAP25) S-acylation Hill slope / IC50: in cellulo HEK293T; for zDHHC2-mediated substrate (SNAP25) S-acylation Hill slope / IC50: Western blot; for IC50: read-out: zDHHC2-mediated substrate (SNAP25) S-acylation IC50 (95 CI); for GFP-SNAP25 S-acylation in cell-based assays, newly synthesized compounds: resynthesized (UoS) material vs original hits, Supplemental Fig. 2 (zD2, zD3, zD7, zD15, zD17)
# Method: The inhibitory activity of TTZ-1 and TTZ-2 on cells expressing SNAP25 and zDHHC2 was also examined. Human embryonic kidney 293T (HEK293T) cells were transfected with plasmids encoding GFP-tagged SNAP25b and HA-tagged zDHHC2. Cells were then preincubated for 4 h with either dimethyl sulfoxide (DMSO) as a vehicle control or increasing concentrations of TTZ-1/TTZ-2 (diluted in serum-free medium) before being metabolically labeled for a further 4 h with C16:0-azide. Samples were then lysed and processed by copper-catalyzed click chemistry to reveal the extent of S-acylation.
# Figure 5 Activity of TTZ-1 and TTZ-2 against SNAP25 S-acylation by human zDHHC2 expressed in mammalian cells. HEK293T cells were transfected with a plasmid encoding GFP-SNAP25b together with a plasmid encoding human zDHHC2 (+zD2) or a control plasmid pEF-BOS-HA. Cells were preincubated for 4 h with increasing concentrations of TTZ-1 (A) or TTZ-2 (B) or DMSO (as a control) before metabolic labeling with 100 μM C16:0-azide for another 4 h. Cells were lysed, and proteins having incorporated C16:0-azide were labeled by click chemistry with an alkyne-IR800 dye. Protein samples were then resolved by SDS-PAGE and transferred to nitrocellulose membranes that were probed with an anti-GFP antibody (IR680). Representative images are shown for cells treated with TTZ-1 (A) or TTZ-2 (B). Top panels, click chemistry signal (top panel, Click [IR800]) and GFP immunoblot (middle panel, GFP [IR680]). Positions of the molecular mass markers (in kilodalton) are indicated on the right side of the membranes. Bottom panels A and B, data from three independent experiments performed in duplicate were quantified, and the inhibition of GFP-SNAP25b S-acylation was determined as stated in the Experimental procedures section. Graphs show mean ± SEM of inhibition of normalized S-acylation (click signal/GFP signal) in the presence of each compound. Data were analyzed and fit to a nonlinear curve using the log(inhibitor) versus normalized response (variable slope) equation. DMSO, dimethyl sulfoxide; HA, hemagglutinin; HEK293T, human embryonic kidney 293T cell line; TTZ, tetrazole; zDHHC, zinc finger DHHC domain–containing protein.
# HEK293T cells were plated on poly-D-lysine–coated 24-well plates (catalog no.: 356413; Corning BioCoat, VWR) and transfected with 2.4 μg of pEF-zDHHC2 plasmid (or the control empty plasmid pEF-BOS-HA) for the measurement of zDHHC2 autoacylation and 4.8 μl of Lipofectamine 2000 (Invitrogen). For substrate acylation, cells were transfected with 1.6 μg of pEF-zDHHC plasmid (or the control empty plasmid pEF-BOS-HA) together with 0.8 μg of EGFP-SNAP25b plasmid and 4.8 μl of Lipofectamine 2000. Twenty-four hours post-transfection, cells were washed once with PBS and preincubated with ONO or UoS compounds diluted in 250 μl of serum-free DMEM for 4 h. S-acylation labeling was then started by the addition of 50 μl of 600 μM of either unmodified palmitic acid C16:0 or C16:0-azide (final concentration of 100 μM) diluted in serum-free DMEM supplemented with 1 mg/ml fatty acid–free BSA (Sigma; catalog no.: A7030). Cells were labeled for 4 h, washed once with PBS, then lysed on ice in 100 μl of 50 mM Tris (pH 8) containing 0.5% SDS and protease inhibitors (Sigma; catalog no.: P8340). Conjugation of IR800 alkyne dye or mPEG5K alkyne to C16:0-azide was carried out for 1 h at room temperature with end-over-end rotation by adding an equal volume of freshly prepared click chemistry reaction mixture containing the following: 5 μM IRDye 800CW alkyne (catalog no.: 929-60002; Li-COR) or 200 μM of mPEG5K-alkyne (catalog no.: JKA3177; Sigma), 4 mM CuSO4 (catalog no.: 451657; Sigma), 400 μM Tris[(1-benzyl-1H-1,2,3-triazol-4-yl)methyl]amine (catalog no.: 678937; Sigma), and 8 mM ascorbic acid (catalog no.: A15613; Alpha Aesar) in distilled water. About 67 μl of 4 × SDS-PAGE sample buffer containing 100 mM DTT was then added to the 200 μl sample. […]
Compound,inhibition at 25 µM [%],zDHHC2-mediated substrate (SNAP25) S-acylation Hill slope,IC50 [µM],"GFP-SNAP25 S-acylation in cell-based assays, newly synthesized compounds"
"CCCCCCCOc1ccc(C(=O)Nc2cccc3c2OC(c2nnn[nH]2)CN3)cc1 (centres unmarked) [TTZ-1, N-(2-(1H-Tetrazol-5-yl)-3,4-dihydro-2H-benzo[b][1,4]oxazin-8-yl)-4-(heptyloxy)benzamide]",113 ± 5,7.6,14.4,results comparable to the original hit compounds
"O=C(Nc1cccc2c1OC(c1nnn[nH]1)CN2)c1ccc(OCCCCc2ccccc2)cc1 (centres unmarked) [TTZ-2, N-(2-(1H-Tetrazol-5-yl)-3,4-dihydro-2H-benzo[b][1,4]oxazin-8-yl)-4-(4-phenylbutoxy)benzamide]",84 ± 6,4.6,18.8,results comparable to the original hit compounds
